Reference: patent US20090286725A1, “PEPTIDES AND DERIVATIVES THEREOF, THE MANUFACTURING THEREOF AS WELL AS THEIR USE FOR PREPARING A THERAPEUTICALLY AND/OR PREVENTIVELY ACTIVE PHARMACEUTICAL COMPOSITION” (FIBREX MEDICAL RESEARCH & DEVELOPMENT GMBH, priority 2008, published 2009)
No end group written: not given here.

Experiments:
RhoA = test: thrombin induced RhoA activation in HUVEC culture (Rho pull-down, Western blot); type: cell-based, human; conditions: 5 U/ml thrombin alone, 5 min
Procedure: The biological effect of the compounds was established in a model thrombin induced RhoA activation in human umbilical vein endothelial cell (HUVEC) culture.
HUVEC are grown to confluence under standard conditions. Before induction of Rho activity HUVEC were starved for 4 h by using IMDM (Gibco) without growth factor and serum supplements. After the starvation period 5 U/ml Thrombin (Calbiochem) or 5 U thrombin plus 50 μg/ml of test compound are added to the starvation medium for 1, 5 and 10 min. Active RhoA was isolated using Rho Assay Reagent from Upstate according to manufactures instructions. Isolates were separated on a 15% polyacrylamid gel and blotted on Nitrocellulose-Membrane (Bio-Rad). RhoA was dedected by using Anti-Rho (-A, -B, -C), clone55 from Upstate (1:500).

[1] = biological target: T1, vascular endothelial (VE) cadherin (human, UniProt P33151 48-784); test: cell-based or functional assay
T1 sequence (looked up): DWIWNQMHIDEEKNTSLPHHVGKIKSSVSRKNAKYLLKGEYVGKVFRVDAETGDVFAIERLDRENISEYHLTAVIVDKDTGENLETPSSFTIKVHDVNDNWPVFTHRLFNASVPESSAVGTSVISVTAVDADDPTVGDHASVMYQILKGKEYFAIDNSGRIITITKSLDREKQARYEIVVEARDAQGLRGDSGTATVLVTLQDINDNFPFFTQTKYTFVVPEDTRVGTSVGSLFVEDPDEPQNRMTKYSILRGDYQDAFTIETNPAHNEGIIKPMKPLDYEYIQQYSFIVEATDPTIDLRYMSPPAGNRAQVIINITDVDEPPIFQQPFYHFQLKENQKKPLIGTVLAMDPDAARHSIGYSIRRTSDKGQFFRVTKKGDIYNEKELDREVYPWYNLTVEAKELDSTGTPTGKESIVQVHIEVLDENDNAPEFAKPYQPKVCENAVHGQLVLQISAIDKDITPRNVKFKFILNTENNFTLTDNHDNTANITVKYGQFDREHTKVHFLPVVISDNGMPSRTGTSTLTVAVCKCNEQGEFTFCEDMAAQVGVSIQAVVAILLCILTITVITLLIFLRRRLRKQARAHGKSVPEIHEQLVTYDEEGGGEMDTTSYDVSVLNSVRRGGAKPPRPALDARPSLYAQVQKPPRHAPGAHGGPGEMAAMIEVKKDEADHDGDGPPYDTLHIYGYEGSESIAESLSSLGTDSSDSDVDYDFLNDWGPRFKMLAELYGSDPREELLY

Row | Molecule | Relative RhoA stimulation compared to unstimulated control (RhoA) | Relative RhoA stimulation compared to unstimulated control [1]
1 | thrombin | 3.8 | –
2 | GHRPLDKKREEAPSLRPAPPPISGG-OH | – | 0.85 fold of unstimulated control
